# In ChEMBL document CHEMBL3046513, “Synthesis, characterization, and biological evaluation of some N-aryl hydrazones and their 2,3-disubstituted-4-thiazolidinone derivatives” (Med Chem Res, 2013):
# Test system: Candida albicans
# Assay: Antifungal activity against Candida albicans assessed as growth inhibition by serial plate dilution method
# Assay type: functional
row,SMILES,MIC
1,COc1ccc(C2SCC(=O)N2NC(=O)c2cc(OC)ccc2Br)cc1 (stereo not drawn),6.25 µg/mL
2,COc1ccc(Br)c(C(=O)N/N=C\c2ccccc2Cl)c1,6.25 µg/mL
3,COc1ccc(Br)c(C(=O)N/N=C\c2ccc(O)c(OC)c2)c1,12.5 µg/mL
4,COc1ccc(Br)c(C(=O)N/N=C\c2ccc(Cl)cc2)c1,3.12 µg/mL
5,COc1ccc(Br)c(C(=O)N/N=C\c2ccccc2OC)c1,6.25 µg/mL
6,OC(Cn1cncn1)(Cn1cncn1)c1ccc(F)cc1F [FLUCONAZOLE],8 µg/mL
7,COc1ccc(Br)c(C(=O)N/N=C\c2cccc3cc(OC)ccc23)c1,12.5 µg/mL
8,COc1ccc(Br)c(C(=O)N/N=C\c2cccnc2)c1,3.12 µg/mL
9,COc1ccc(Br)c(C(=O)N/N=C\c2ccc(-c3ccccc3)cc2)c1,12.5 µg/mL
10,COc1ccc(Br)c(C(=O)N/N=C\c2ccc(F)cc2)c1,12.5 µg/mL
11,COc1ccc(Br)c(C(=O)N/N=C\c2ccccc2O)c1,6.25 µg/mL
12,COc1ccc(Br)c(C(=O)N/N=C\c2ccc(C)cc2)c1,6.25 µg/mL

# Test system: Bacillus cereus
# Assay: Antibacterial activity against Bacillus cereus assessed as growth inhibition by serial plate dilution method
# Assay type: functional
row,SMILES,MIC
1,COc1ccc(C2SCC(=O)N2NC(=O)c2cc(OC)ccc2Br)cc1 (stereo not drawn),6.25 µg/mL
2,COc1ccc(Br)c(C(=O)N/N=C\c2ccccc2Cl)c1,6.25 µg/mL
3,COc1ccc(Br)c(C(=O)N/N=C\c2ccc(O)c(OC)c2)c1,6.25 µg/mL
4,COc1ccc(Br)c(C(=O)N/N=C\c2ccc(Cl)cc2)c1,12.5 µg/mL
5,COc1ccc(Br)c(C(=O)N/N=C\c2ccccc2OC)c1,12.5 µg/mL
6,CC1(C)S[C@@H]2[C@H](NC(=O)Cc3ccccc3)C(=O)N2[C@H]1C(=O)O [PENICILLIN G],0.12 µg/mL
7,COc1ccc(Br)c(C(=O)N/N=C\c2cccc3cc(OC)ccc23)c1,6.25 µg/mL
8,COc1ccc(Br)c(C(=O)N/N=C\c2cccnc2)c1,6.25 µg/mL
9,COc1ccc(Br)c(C(=O)N/N=C\c2ccc(-c3ccccc3)cc2)c1,25 µg/mL
10,COc1ccc(Br)c(C(=O)N/N=C\c2ccc(F)cc2)c1,6.25 µg/mL
11,COc1ccc(Br)c(C(=O)N/N=C\c2ccccc2O)c1,12.5 µg/mL
12,COc1ccc(Br)c(C(=O)N/N=C\c2ccc(C)cc2)c1,12.5 µg/mL

# Test system: Pseudomonas aeruginosa
# Assay: Antibacterial activity against Pseudomonas aeruginosa ATCC 27853 assessed as growth inhibition by serial plate dilution method
# Assay type: functional
row,SMILES,MIC
1,COc1ccc(C2SCC(=O)N2NC(=O)c2cc(OC)ccc2Br)cc1 (stereo not drawn),6.25 µg/mL
2,COc1ccc(Br)c(C(=O)N/N=C\c2ccccc2Cl)c1,6.25 µg/mL
3,COc1ccc(Br)c(C(=O)N/N=C\c2ccc(O)c(OC)c2)c1,12.5 µg/mL
4,COc1ccc(Br)c(C(=O)N/N=C\c2ccc(Cl)cc2)c1,3.12 µg/mL
5,COc1ccc(Br)c(C(=O)N/N=C\c2ccccc2OC)c1,3.12 µg/mL
6,CC1(C)S[C@@H]2[C@H](NC(=O)Cc3ccccc3)C(=O)N2[C@H]1C(=O)O [PENICILLIN G],0.12 µg/mL
7,COc1ccc(Br)c(C(=O)N/N=C\c2cccc3cc(OC)ccc23)c1,12.5 µg/mL
8,COc1ccc(Br)c(C(=O)N/N=C\c2cccnc2)c1,6.25 µg/mL
9,COc1ccc(Br)c(C(=O)N/N=C\c2ccc(-c3ccccc3)cc2)c1,6.25 µg/mL
10,COc1ccc(Br)c(C(=O)N/N=C\c2ccc(F)cc2)c1,6.25 µg/mL
11,COc1ccc(Br)c(C(=O)N/N=C\c2ccccc2O)c1,6.25 µg/mL
12,COc1ccc(Br)c(C(=O)N/N=C\c2ccc(C)cc2)c1,12.5 µg/mL

# Test system: Staphylococcus aureus
# Assay: Antibacterial activity against Staphylococcus aureus ATCC 25923 assessed as growth inhibition by serial plate dilution method
# Assay type: functional
row,SMILES,MIC
1,COc1ccc(C2SCC(=O)N2NC(=O)c2cc(OC)ccc2Br)cc1 (stereo not drawn),6.25 µg/mL
2,COc1ccc(Br)c(C(=O)N/N=C\c2ccccc2Cl)c1,12.5 µg/mL
3,COc1ccc(Br)c(C(=O)N/N=C\c2ccc(O)c(OC)c2)c1,12.5 µg/mL
4,COc1ccc(Br)c(C(=O)N/N=C\c2ccc(Cl)cc2)c1,6.25 µg/mL
5,COc1ccc(Br)c(C(=O)N/N=C\c2ccccc2OC)c1,6.25 µg/mL
6,CC1(C)S[C@@H]2[C@H](NC(=O)Cc3ccccc3)C(=O)N2[C@H]1C(=O)O [PENICILLIN G],0.12 µg/mL
7,COc1ccc(Br)c(C(=O)N/N=C\c2cccc3cc(OC)ccc23)c1,6.25 µg/mL
8,COc1ccc(Br)c(C(=O)N/N=C\c2cccnc2)c1,6.25 µg/mL
9,COc1ccc(Br)c(C(=O)N/N=C\c2ccc(-c3ccccc3)cc2)c1,25 µg/mL
10,COc1ccc(Br)c(C(=O)N/N=C\c2ccc(F)cc2)c1,6.25 µg/mL
11,COc1ccc(Br)c(C(=O)N/N=C\c2ccccc2O)c1,12.5 µg/mL
12,COc1ccc(Br)c(C(=O)N/N=C\c2ccc(C)cc2)c1,12.5 µg/mL

# Test system: Escherichia coli
# Assay: Antibacterial activity against Escherichia coli ATCC 25922 assessed as growth inhibition by serial plate dilution method
# Assay type: functional
row,SMILES,MIC
1,COc1ccc(C2SCC(=O)N2NC(=O)c2cc(OC)ccc2Br)cc1 (stereo not drawn),12.5 µg/mL
2,COc1ccc(Br)c(C(=O)N/N=C\c2ccccc2Cl)c1,6.25 µg/mL
3,COc1ccc(Br)c(C(=O)N/N=C\c2ccc(O)c(OC)c2)c1,6.25 µg/mL
4,COc1ccc(Br)c(C(=O)N/N=C\c2ccc(Cl)cc2)c1,6.25 µg/mL
5,COc1ccc(Br)c(C(=O)N/N=C\c2ccccc2OC)c1,12.5 µg/mL
6,CC1(C)S[C@@H]2[C@H](NC(=O)Cc3ccccc3)C(=O)N2[C@H]1C(=O)O [PENICILLIN G],0.12 µg/mL
7,COc1ccc(Br)c(C(=O)N/N=C\c2cccc3cc(OC)ccc23)c1,12.5 µg/mL
8,COc1ccc(Br)c(C(=O)N/N=C\c2cccnc2)c1,6.25 µg/mL
9,COc1ccc(Br)c(C(=O)N/N=C\c2ccc(-c3ccccc3)cc2)c1,25 µg/mL
10,COc1ccc(Br)c(C(=O)N/N=C\c2ccc(F)cc2)c1,12.5 µg/mL
11,COc1ccc(Br)c(C(=O)N/N=C\c2ccccc2O)c1,6.25 µg/mL
12,COc1ccc(Br)c(C(=O)N/N=C\c2ccc(C)cc2)c1,6.25 µg/mL

# Test system: Mus musculus
# Assay: Analgesic activity in Mus musculus […] albino (mouse) assessed as time taken to tail withdrawl at 100 mg/kg, po administered through intragastric tube after 180 min by tail flick test (reference value: 1.363 +/- 0.1297 secs)
# Assay type: functional
row,SMILES,Time
1,COc1ccc(C2SCC(=O)N2NC(=O)c2cc(OC)ccc2Br)cc1 (stereo not drawn),2.513 s
2,CC(C)=CCN1CC[C@]2(C)c3cc(O)ccc3C[C@H]1[C@H]2C [(+)-PENTAZOCINE],7.025 s

# Test system: Mus musculus
# Assay: Analgesic activity in Mus musculus […] albino (mouse) assessed as time taken to tail withdrawl at 100 mg/kg, po administered through intragastric tube after 120 min by tail flick test (reference value: 1.363 +/- 0.1297 secs)
# Assay type: functional
row,SMILES,Time
1,COc1ccc(C2SCC(=O)N2NC(=O)c2cc(OC)ccc2Br)cc1 (stereo not drawn),2.575 s
2,CC(C)=CCN1CC[C@]2(C)c3cc(O)ccc3C[C@H]1[C@H]2C [(+)-PENTAZOCINE],6.863 s

# Test system: Mus musculus
# Assay: Analgesic activity in Mus musculus […] albino (mouse) assessed as time taken to tail withdrawl at 100 mg/kg, po administered through intragastric tube after 60 min by tail flick test (reference value: 1.363 +/- 0.1297 secs)
# Assay type: functional
row,SMILES,Time
1,COc1ccc(C2SCC(=O)N2NC(=O)c2cc(OC)ccc2Br)cc1 (stereo not drawn),2.388 s
2,CC(C)=CCN1CC[C@]2(C)c3cc(O)ccc3C[C@H]1[C@H]2C [(+)-PENTAZOCINE],7.075 s

# Test system: Rattus norvegicus
# Assay: Anti-inflammatory activity in Rattus norvegicus (rat) assessed as decrease in carrageenan-induced paw edema at 100 mg/kg, po administered 30 min prior to carrageenan challenge measured after 180 min (reference value: 2.275 +/- 0.1181 mm)
# Assay type: functional
row,SMILES,Activity
1,O=C(O)Cc1ccccc1Nc1c(Cl)cccc1Cl [DICLOFENAC],0.625 mm
2,COc1ccc(C2SCC(=O)N2NC(=O)c2cc(OC)ccc2Br)cc1 (stereo not drawn),1.875 mm

# Test system: Rattus norvegicus
# Assay: Anti-inflammatory activity in Rattus norvegicus (rat) assessed as decrease in carrageenan-induced paw edema at 100 mg/kg, po administered 30 min prior to carrageenan challenge measured after 120 min (reference value: 2.375 +/- 0.1436 mm)
# Assay type: functional
row,SMILES,Activity
1,O=C(O)Cc1ccccc1Nc1c(Cl)cccc1Cl [DICLOFENAC],0.625 mm
2,COc1ccc(C2SCC(=O)N2NC(=O)c2cc(OC)ccc2Br)cc1 (stereo not drawn),1.75 mm

# Test system: Rattus norvegicus
# Assay: Anti-inflammatory activity in Rattus norvegicus (rat) assessed as decrease in carrageenan-induced paw edema at 100 mg/kg, po administered 30 min prior to carrageenan challenge measured after 60 min (reference value: 2.175 +/- 0.1797 mm)
# Assay type: functional
row,SMILES,Activity
1,O=C(O)Cc1ccccc1Nc1c(Cl)cccc1Cl [DICLOFENAC],0.6 mm
2,COc1ccc(C2SCC(=O)N2NC(=O)c2cc(OC)ccc2Br)cc1 (stereo not drawn),1.6 mm

# Test system: Radical scavenging activity
# Assay: Antioxidant activity assessed as inhibition of DPPH radical generation at 800 ug/mL after 20 min by spectrophotometric analysis relative to control
# Assay type: functional
row,SMILES,inhibition
1,COc1ccc(C2SCC(=O)N2NC(=O)c2cc(OC)ccc2Br)cc1 (stereo not drawn),59.5%
2,O=C1O[C@H]([C@@H](O)CO)C(O)=C1O,96%

# Test system: Radical scavenging activity
# Assay: Antioxidant activity assessed as inhibition of DPPH radical generation at 400 ug/mL after 20 min by spectrophotometric analysis relative to control
# Assay type: functional
row,SMILES,inhibition
1,COc1ccc(C2SCC(=O)N2NC(=O)c2cc(OC)ccc2Br)cc1 (stereo not drawn),58.2%
2,O=C1O[C@H]([C@@H](O)CO)C(O)=C1O,95%

# Test system: Radical scavenging activity
# Assay: Antioxidant activity assessed as inhibition of DPPH radical generation at 200 ug/mL after 20 min by spectrophotometric analysis relative to control
# Assay type: functional
row,SMILES,inhibition
1,COc1ccc(C2SCC(=O)N2NC(=O)c2cc(OC)ccc2Br)cc1 (stereo not drawn),57.5%
2,O=C1O[C@H]([C@@H](O)CO)C(O)=C1O,87.6%
